From publication PMC7414031, “Correlation between hemolytic activity, cytotoxicity and systemic in vivo toxicity of synthetic antimicrobial peptides” (Scientific Reports, 2020)
Converted amounts (≈) assume the structure as drawn. Square brackets hold non-standard residues; d marks the D form. Peptide text beside a SMILES is read from it. 2Nal = N[C@@H](Cc1ccc2ccccc2c1)C(=O)O; Nlys = NCCCCNCC(=O)O

Legend:
[1] = tested on: Staphylococcus aureus; set-up: method as in PMID 30842436; settings: cited from earlier work
[2] = tested on: canine erythrocytes; experiment: in vitro; format: cell-based, dog; settings: for IC10 haemolysis: canine erythrocytes; for IC50: red cells of canine
Description: (§1) The haemolytic activity of the 24 structurally related peptides (Table 1) was evaluated in erythrocytes from four different species (human, canine, bovine and rat) employing standard methodology. The subsequent release of haemoglobin was used to assess haemolytic activity as function of peptide and peptidomimetic concentration, with concentrations ranging from 0.15 to 150 µM (Presented in whole in Supplementary information Table S1–S4).
(§2) Human and rat (Sprague–Dawley) blood samples were purchased by Bioreclamation IVT (Westbury, NY, USA), collected in tubes containing heparin as anticoagulant and stored at 4 °C before use. Dog and bovine whole blood was collected from in-house animals at Zoetis Animal Health, Kalamazoo, Michigan and stored at 4 °C in tubes containing heparin as anticoagulant. 10 mL of each whole blood sample were centrifuged at 1,500 × g for 5 min and the resulting plasma fraction was removed from the samples. The pellets were washed with an equal volume (10 mL) of saline, mixing by inversion. The centrifuging and washing steps were repeated 5 times. After the last washing step, a volume of PBS was added, and the resulting samples were diluted 1:10 with PBS to yield an RBC concentration of ~ 5 × 10^8 RBC/mL. The assay was performed in a 384-well polypropylene microplate (Greiner 784201, Greiner Bio-One International, GMBH) through a Bravo Liquid Handling Platform 384 system (Agilent Technologies, Santa Clara, CA, USA) according to the previously published procedures. The compounds were tested in serial 1:1 dilutions in PBS, with final concentrations ranging from 150 to 1.2 µM. Melittin was used as reference lytic peptide. 1% TritonX100 and PBS were used as positive and negative (diluent) controls, respectively. The final concentrations were obtained by adding to the wells 7 µL of each solution, melittin or PBS, followed by 63 µL of RBCs to each well. The plate was sealed, shaken on a plate shaker for 20 s, incubated for one hour at 37 °C. Finally, it was centrifuged at 1,500 × g for 5 min at room temperature. 60 µL of supernatants were removed from all plate wells via a Bravo 384 robot and transferred to a flat-bottomed 384-well plate (Greiner UV-Star #7810801, Greiner Bio-One International, GMBH). The plate was centrifuged at 1,000 g for 1 min to remove air bubbles and optical density was measured at 405 nm using a plate reader. Percentage of haemolysis was calculated with the following equation: %haemolysis=(absorbance of test sample)-absorbance of diluent/absorbance of positive control-absorbance of diluent×100.

[3] = in vitro; format: cell-based, dog; settings: dog
Description: as §1, §2

[4] = tested on: Staphylococcus pseudintermedius; settings: cited from earlier work
[5] = tested on: bovine erythrocytes; experiment: in vitro; format: cell-based; settings: bovine erythrocytes
Description: as §1, §2

[6] = in vitro; format: cell-based, bovine; settings: bovine
Description: as §1, §2

[7] = tested on: human erythrocytes; experiment: in vitro; format: cell-based; settings: for IC10 haemolysis: human erythrocytes; for IC50: red cells of human
Description: as §1, §2

[8] = in vitro; format: cell-based, human; settings: human
Description: as §1, §2

[9] = tested on: rat erythrocytes; experiment: in vitro; format: cell-based, rat (Sprague–Dawley); settings: for IC10 haemolysis: rat erythrocytes; for IC50: red cells of rat
Description: as §1, §2

[10] = in vitro; format: cell-based, rat (Sprague–Dawley); settings: Sprague-Dawley, rat
Description: as §1, §2

[11] = tested on: Pseudomonas aeruginosa; set-up: method as in PMID 30842436; settings: cited from earlier work

In the case of `CC(C)C[C@H](NC(=O)[C@H](CCCCN)NC(=O)[C@H](Cc1cccc2ccccc12)NC(=O)[C@H](Cc1ccccc1)NC(=O)[C@@H](N)Cc1cccc2ccccc12)C(=O)N[C@@H](CCCCN)C(=O)N[C@@H](CCCCN)C(N)=O` [Compound 16, (1-Nal)Ala-Phe-(1-Nal)Ala-Lys-Leu-Lys-Lys] (HELM PEPTIDE1{[N[C@@H](Cc1cccc2ccccc12)C(=O)[*:2]].F.[O=C([C@H](Cc1cccc2ccccc12)N[*:1])[*:2]].K.L.K.K.[am]}$$$$V2.0), the “MIC against Staphylococcus aureus” value [1] is listed as 16 to 32 µg/mL, the IC10 haemolysis [2] is listed as 16.4 µM and the IC50 [2] is listed as > 150 µM. The hemolysis at 1 h, 150 µM [3] was 27.7%, the “MIC against Staphylococcus pseudintermedius” value [4] was 8 to 16 µg/mL and the IC10 haemolysis [5] was 45.2 µM. It also gave a hemolysis at 1 h, 150 µM [6] of 30.6%, an IC10 haemolysis [7] of 47.4 µM and an IC50 [7] of 134 µM. The hemolysis at 1 h, 150 µM [8] was 55.5%, the IC10 haemolysis [9] was 145.0 µM and the IC50 [9] was > 150 µM. The hemolysis at 1 h, 150 µM [10] was 11% and the “MIC against Pseudomonas aeruginosa” value [11] was 64 µg/mL (≈ 60.6 µM).

In the case of `CC(C)C[C@H](NC(=O)[C@H](CCCCN)NC(=O)[C@H](CCCCN)NC(=O)[C@@H](N)CCCCN)C(=O)N[C@@H](Cc1ccc2ccccc2c1)C(=O)N[C@@H](Cc1ccc(O)cc1)C(=O)N[C@@H](Cc1ccc2ccccc2c1)C(N)=O` [Compound 17, Lys-Lys-Lys-Leu-(2-Nal)Ala-Tyr-(2-Nal)Ala] (HELM PEPTIDE1{K.K.K.L.[O=C([C@H](Cc1ccc2ccccc2c1)N[*:1])[*:2]].Y.[O=C([C@H](Cc1ccc2ccccc2c1)N[*:1])[*:2]].[am]}$$$$V2.0), the “MIC against Staphylococcus aureus” value [1] is listed as > 64 µg/mL, the IC10 haemolysis [2] is listed as 59.6 µM and the IC50 [2] is listed as 87 µM. For the same molecule, the hemolysis at 1 h, 150 µM [3] was 100%, the “MIC against Staphylococcus pseudintermedius” value [4] was 16 µg/mL (≈ 14.9 µM) and the IC10 haemolysis [5] was 81.4 µM. The hemolysis at 1 h, 150 µM [6] was 19.9%, the IC10 haemolysis [7] was 61.1 µM and the IC50 [7] was 109 µM. For the same molecule, the hemolysis at 1 h, 150 µM [8] was 78.1%, the IC10 haemolysis [9] was 74.7 µM and the IC50 [9] was 87.7 µM. For the same molecule, the hemolysis at 1 h, 150 µM [10] was 100% and the “MIC against Pseudomonas aeruginosa” value [11] was > 64 µg/mL.

In the case of `CCCC[C@H](NC(=O)[C@H](CCCCN)NC(=O)[C@H](CCCCN)NC(=O)[C@@H](N)CCCCN)C(=O)N[C@@H](Cc1cccc2ccccc12)C(=O)N[C@@H](Cc1ccccc1)C(=O)N[C@@H](Cc1cccc2ccccc12)C(N)=O` [Compound 20, Lys-Lys-Lys-Nle-(1-Nal)Ala-Phe-(1-Nal)Ala] (HELM PEPTIDE1{K.K.K.[Nle].[O=C([C@H](Cc1cccc2ccccc12)N[*:1])[*:2]].F.[O=C([C@H](Cc1cccc2ccccc12)N[*:1])[*:2]].[am]}$$$$V2.0), the “MIC against Staphylococcus aureus” value [1] is listed as > 64 µg/mL, the IC10 haemolysis [2] is listed as 45.8 µM and the IC50 [2] is listed as > 150 µM. The hemolysis at 1 h, 150 µM [3] was 36%, the “MIC against Staphylococcus pseudintermedius” value [4] was 16 to 32 µg/mL and the IC10 haemolysis [5] was 94.7 µM. For the same molecule, the hemolysis at 1 h, 150 µM [6] was 20.1%, the IC10 haemolysis [7] was 91.3 µM and the IC50 [7] was > 150 µM. For the same molecule, the hemolysis at 1 h, 150 µM [8] was 27.5%, the IC10 haemolysis [9] was > 150 µM and the IC50 [9] was > 150 µM. For the same molecule, the hemolysis at 1 h, 150 µM [10] was < 8% and the “MIC against Pseudomonas aeruginosa” value [11] was 16 µg/mL (≈ 15.1 µM).

In the case of `CC(C)C[C@@H](NC(=O)[C@H](CCCCN)NC(=O)[C@H](CCCCN)NC(=O)[C@@H](N)CCCCN)C(=O)N[C@H](Cc1cccc2ccccc12)C(=O)N[C@H](Cc1ccc(O)cc1)C(=O)N[C@H](Cc1cccc2ccccc12)C(N)=O` [Compound 21, Lys-Lys-Lys-Leu-(1-Nal)Ala-Tyr-(1-Nal)Ala] (HELM PEPTIDE1{K.K.K.[dL].[O=C([C@@H](Cc1cccc2ccccc12)N[*:1])[*:2]].[dY].[O=C([C@@H](Cc1cccc2ccccc12)N[*:1])[*:2]].[am]}$$$$V2.0), the “MIC against Staphylococcus aureus” value [1] is listed as 32 to 64 µg/mL, the IC10 haemolysis [2] is listed as 48.2 µM and the IC50 [2] is listed as > 150 µM. The hemolysis at 1 h, 150 µM [3] was 19.9%, the “MIC against Staphylococcus pseudintermedius” value [4] was 2 to 4 µg/mL and the IC10 haemolysis [5] was 109.7 µM. For the same molecule, the hemolysis at 1 h, 150 µM [6] was 16%, the IC10 haemolysis [7] was > 150 µM and the IC50 [7] was > 150 µM. The hemolysis at 1 h, 150 µM [8] was < 8%, the IC10 haemolysis [9] was > 150 µM and the IC50 [9] was > 150 µM. For the same molecule, the hemolysis at 1 h, 150 µM [10] was < 8% and the “MIC against Pseudomonas aeruginosa” value [11] was 8 µg/mL (≈ 7.46 µM).

For `CC(C)C[C@H](NC(=O)CN(CCCCN)C(=O)CN(CCCCN)C(=O)CNCCCCN)C(=O)N[C@@H](Cc1ccc2ccccc2c1)C(=O)N[C@@H](Cc1ccccc1)C(=O)N[C@@H](Cc1ccc2ccccc2c1)C(N)=O` [Compound 23, N-Lys-N-Lys-N-Lys-Leu-(2-Nal)Ala-Phe-(2-Nal)Ala] (H-[Nlys][Nlys][Nlys]L[2Nal]F[2Nal]-NH2), the “MIC against Staphylococcus aureus” value [1] is listed as 32 µg/mL (≈ 30.3 µM), the IC10 haemolysis [2] is listed as 43.3 µM and the IC50 [2] is listed as > 150 µM. For the same molecule, the hemolysis at 1 h, 150 µM [3] was 35.1%, the “MIC against Staphylococcus pseudintermedius” value [4] was 2 to 4 µg/mL and the IC10 haemolysis [5] was 145.8 µM. For the same molecule, the hemolysis at 1 h, 150 µM [6] was 11.1%, the “Haemolytic activity (in words)” value [7] was “not highly lytic” and the IC10 haemolysis [7] was 98.7 µM. The IC50 [7] was > 150 µM, the hemolysis at 1 h, 150 µM [8] was 35.9% and the IC10 haemolysis [9] was > 150 µM. For the same molecule, the IC50 [9] was > 150 µM, the hemolysis at 1 h, 150 µM [10] was < 8% and the “MIC against Pseudomonas aeruginosa” value [11] was 32 µg/mL (≈ 30.3 µM).

In the case of `CC(C)C[C@@H](NC(=O)[C@H](CCCCN)NC(=O)[C@H](CCCCN)NC(=O)[C@@H](N)CCCCN)C(=O)N[C@H](Cc1ccc2ccccc2c1)C(=O)N[C@H](Cc1ccc(O)cc1)C(=O)N[C@H](Cc1ccc2ccccc2c1)C(N)=O` [Compound 24, Lys-Lys-Lys-Leu-(2-Nal)Ala-Tyr-(2-Nal)Ala] (HELM PEPTIDE1{K.K.K.[dL].[O=C([C@@H](Cc1ccc2ccccc2c1)N[*:1])[*:2]].[dY].[O=C([C@@H](Cc1ccc2ccccc2c1)N[*:1])[*:2]].[am]}$$$$V2.0), the “MIC against Staphylococcus aureus” value [1] is given as 16 to 32 µg/mL, the IC10 haemolysis [2] is given as 45.0 µM and the IC50 [2] is given as > 150 µM. For the same molecule, the hemolysis at 1 h, 150 µM [3] was 38.5%, the “MIC against Staphylococcus pseudintermedius” value [4] was 4 to 8 µg/mL and the IC10 haemolysis [5] was 89.6 µM. For the same molecule, the hemolysis at 1 h, 150 µM [6] was 29.8%, the IC10 haemolysis [7] was 76.72 µM and the IC50 [7] was > 150 µM. The hemolysis at 1 h, 150 µM [8] was 23.4%, the IC10 haemolysis [9] was > 150 µM and the IC50 [9] was > 150 µM. For the same molecule, the hemolysis at 1 h, 150 µM [10] was < 8% and the “MIC against Pseudomonas aeruginosa” value [11] was 32 µg/mL (≈ 29.8 µM).
